Activity calls are given as the source filed them. The rule behind the calls is not given here.
How the values were obtained:
[1] = Cytotoxicity against C57BL6/J mouse brown Preadipocyte assessed as decrease in cell viability at 4 uM measured for 24 hrs by trypan blue staining based hemocytometer analysis; assay type: toxicity
[2] = tested on: Adipocyte; assay: Potentiation of CL-316243-stimulated mouse Brown adipocyte activation assessed as increase in CTP1B mRNA expression at 4 uM pretreated with compound for 9 hr followed by CL-316243 induction and measured after 8 hrs by qRT-PCR analysis; assay type: functional, cell-based; conditions: time 17.0 hrs
[3] = Effect on CEBPB mRNA level in mouse Adipocyte by qRT-PCR analysis; assay type: functional
[4] = Effect on Pparg1 mRNA level in mouse Adipocyte by qRT-PCR analysis; assay type: functional
[5] = Inhibition of adipogenic differentiation in C57BL/6J mouse brown Preadipocyte assessed as reduction in neutral lipid content at 4 uM by Oil Red O staining based light microscopy; assay type: functional
[6] = tested on: Adipocyte; assay: Potentiation of CL-316243-stimulated mouse Brown adipocyte activation assessed as increase in Ucp1 expression at 4 uM pretreated with compound for 9 hr followed by CL-316243 induction and measured after 8 hrs by qRT-PCR analysis; assay type: functional, cell-based; conditions: time 17.0 hrs
[7] = tested on: Adipocyte; assay: Potentiation of CL-316243-stimulated mouse Brown adipocyte activation assessed as increase in CPT1a mRNA expression at 4 uM pretreated with compound for 9 hr followed by CL-316243 induction and measured after 8 hrs by qRT-PCR analysis; assay type: functional, cell-based; conditions: time 17.0 hrs
[8] = tested on: Adipocyte; assay: Potentiation of CL-316243-stimulated mouse Brown adipocyte activation assessed as increase in PPARA mRNA expression at 4 uM pretreated with compound for 9 hr followed by CL-316243 induction and measured after 8 hrs by qRT-PCR analysis; assay type: functional, cell-based; conditions: time 17.0 hrs
[9] = tested on: Adipocyte; assay: Downregulation of C/EBPbeta protein expression level in mouse Adipocyte by Western blot analysis; assay type: functional, cell-based
[10] = tested on: Adipocyte; assay: Potentiation of CL-316243-stimulated mouse Brown adipocyte activation assessed as increase in ELOVL3 mRNA expression at 4 uM pretreated with compound for 9 hr followed by CL-316243 induction and measured after 8 hrs by qRT-PCR analysis; assay type: functional, cell-based; conditions: time 17.0 hrs
[11] = Cytotoxicity against C57BL6/J mouse brown Preadipocyte assessed as decrease in cell viability > 8 uM measured for 24 hrs by trypan blue staining based hemocytometer analysis; assay type: toxicity
[12] = Effect on CEBPA mRNA level in mouse Adipocyte by qRT-PCR analysis; assay type: functional
[13] = Effect on CD36 mRNA level in mouse Adipocyte by qRT-PCR analysis; assay type: functional
[14] = tested on: Adipocyte; assay: Potentiation of CL-316243-stimulated mouse Brown adipocyte activation assessed as increase in CIDEA mRNA expression at 4 uM pretreated with compound for 9 hr followed by CL-316243 induction and measured after 8 hrs by qRT-PCR analysis; assay type: functional, cell-based; conditions: time 17.0 hrs
[15] = Effect on Pparg2 mRNA level in mouse Adipocyte by qRT-PCR analysis; assay type: functional
[16] = tested on: Adipocyte; assay: Downregulation of C/EBPalpha protein expression level in mouse Adipocyte by Western blot analysis; assay type: functional, cell-based
[17] = tested on: Adipocyte; assay: Potentiation of CL-316243-stimulated mouse Brown adipocyte activation assessed as increase in CPT2 mRNA expression at 4 uM pretreated with compound for 9 hr followed by CL-316243 induction and measured after 8 hrs by qRT-PCR analysis; assay type: functional, cell-based; conditions: time 17.0 hrs
[18] = tested on: Adipocyte; assay: Effect on C/EBPdelta mRNA level in mouse brown Adipocyte by qRT-PCR analysis; assay type: functional, cell-based
[19] = tested on: Adipocyte; assay: Potentiation of CL-316243-stimulated mouse Brown adipocyte activation assessed as increase in FGF21 mRNA expression at 4 uM pretreated with compound for 9 hr followed by CL-316243 induction and measured after 8 hrs by qRT-PCR analysis; assay type: functional, cell-based; conditions: time 17.0 hrs
[20] = Downregulation of C/EBPdelta protein expression level in mouse Adipocyte by Western blot analysis; assay type: functional
[21] = tested on: Adipocyte; assay: Downregulation of C/EBPdelta protein expression level in mouse brown Adipocyte by Western blot analysis; assay type: functional, cell-based
[22] = tested on: Adipocyte; assay: Potentiation of CL-316243-stimulated mouse Brown adipocyte activation assessed as increase in ELVOL6 mRNA expression at 4 uM pretreated with compound for 9 hr followed by CL-316243 induction and measured after 8 hrs by qRT-PCR analysis; assay type: functional, cell-based; conditions: time 17.0 hrs

## COc1c(C)c(O)c2c(=O)c(OC)c(-c3ccc(O)cc3)oc2c1OC
[1]
  Activity: Non-Toxic
[2]
  Activity: inactive
[3]
  Activity: 50.3%
[4]
  Activity: 50.3%
[5]
  inhibition at 4 µM: 54.8%
[6]
  Activity: inactive
[7]
  Activity: inactive
[8]
  Activity: inactive
[9]
  Activity: inactive
[10]
  Activity: inactive
[11]
  Activity: Non-Toxic
[12]
  Activity: 50.3%
[13]
  Activity: 24.18%
[14]
  Activity: inactive
[15]
  Activity: 50.3%
[16]
  Activity: inactive
[17]
  Activity: inactive
[18]
  Activity: Active
[19]
  Activity: inactive
[20]
  Activity: 31.93%
[21]
  Activity: Active
[22]
  Activity: inactive

Source: ChEMBL document CHEMBL5357004 (J Nat Prod, 2024)
